Assay results as given in article PMC11252418, “Specific glycine-dependent enzyme motion determines the potency of conformation selective inhibitors of threonyl-tRNA synthetase” (Communications Biology, 2024).
Values joined by “and” are separate entries in the source; they are usually repeats but may differ in a detail not shown here. Identical values can stand only once. Like-named read-outs stand apart in the source and are kept apart here.

Legend:
[1] = target: T1, EcThrRS_G463S (Escherichia coli, UniProt P0A8M3, G463S); test: Thermal shift assay (TSA); format: binding
T1 construct: The E. coli ThrRS (residues 242-642, Supplementary Note 1) wild type; 6xHis (C); made in house; host or cells: E. coli BL21 (DE3)
Procedure: (§1) The EcThrRS_WT and L489M/G463S/G463S_Q484A/G463A/A316N mutant proteins, ObaO_WT and ObaO_S464G mutant proteins were prepared at 2 μM in buffer containing 25 mM Tris-HCl pH 7.5, 200 mM NaCl, and 20 μM OB (GlpBio, US) or BN (GlpBio, US) or ddH2O in equal volumes since the compounds were diluted with ddH2O to 1 mM as stocks. […] SYPRO orange dye (Sigma, USA) was diluted in assay buffer containing 25 mM Tris-HCl pH 7.5 and 200 mM NaCl to a 40× concentration, and was added to the mixture to a final 4× concentration. Aliquots (20 μL) were added to a 96-well PCR plate. After complete mixing, the final solutions were heated from 25 to 95 °C at a rate of 0.015 °C/s, and fluorescence signals were monitored by QuantStudio 3 (Applied Biosystems by Thermo Fisher Scientific, USA). The melting temperature (Tm) was calculated through a previously established method[56],[57].

[2] = target: T2, EcThrRS_G463A (Escherichia coli, UniProt P0A8M3, G463A); test: Thermal shift assay (TSA); format: binding
T2 construct: The E. coli ThrRS (residues 242-642, Supplementary Note 1) wild type; 6xHis (C); made in house; host or cells: E. coli BL21 (DE3)
Procedure: as §1

[3] = target: T1, EcThrRS_G463S; test: ATP hydrolysis assay; format: biochemical; settings: BN, replicates, sheet Fig.7d
[4] = target: T3, EcThrRS_WT (Escherichia coli, UniProt P0A8M3); test: ATP hydrolysis assay; format: biochemical; settings: for ATP hydrolysis activity, inhibitory curve data point: BN, replicates, sheet Fig.7d
T3 construct: The E. coli ThrRS (residues 242-642, Supplementary Note 1) wild type; 6xHis (C); made in house; host or cells: E. coli BL21 (DE3)
Procedure: (§2) 200 nM EcThrRS wide type and mutants, ObaO and ObaO_S464G mutant were incubated with serially diluted OB (0 to 10 μM for EcThrRS, 0 to 40 μM for ObaO) in a buffer containing 25 mM HEPES pH 7.5, 50 mM NaCl, 40 mM MgCl2, 30 mM KCl, 0.01 mg/mL bovine serum albumin (BSA), and 0.004% Tween-20 at 37 °C for 4 h and then mixed 1:1 with a substrate mixture containing 4 μM ATP, 40 μM L-threonine, 25 mM HEPES pH 7.5, 50 mM NaCl, 40 mM MgCl2, 30 mM KCl, 0.01 mg/mL BSA, and 0.004% Tween-20. The ATP hydrolysis reaction was performed at 37 °C for 4 h.
(§3) After incubation, the detection solution from the Kinase-Glo® luminescent kit (Promega, USA) was added to the reaction system at a 1:1 ratio, and the mixture was gently shaken for 10 min. The chemiluminescence signal was measured using a microplate reader (Tecan, USA). All experiments were performed in four replicates. The data were processed using GraphPad Prism 8 software.

[5] = target: T1, EcThrRS_G463S; test: ATP hydrolysis assay; format: biochemical
Procedure: as §2, §3

[6] = target: T2, EcThrRS_G463A; test: ATP hydrolysis assay; format: biochemical; settings: for ATP hydrolysis activity, inhibitory curve data point: BN, replicates, sheet Fig.7d
Procedure: as §2, §3

[7] = 2 μM protein, 20 μM compound, mean n = 4, read-out: ΔTm (increase of Tm)

T3 sequence (P0A8M3 242-642): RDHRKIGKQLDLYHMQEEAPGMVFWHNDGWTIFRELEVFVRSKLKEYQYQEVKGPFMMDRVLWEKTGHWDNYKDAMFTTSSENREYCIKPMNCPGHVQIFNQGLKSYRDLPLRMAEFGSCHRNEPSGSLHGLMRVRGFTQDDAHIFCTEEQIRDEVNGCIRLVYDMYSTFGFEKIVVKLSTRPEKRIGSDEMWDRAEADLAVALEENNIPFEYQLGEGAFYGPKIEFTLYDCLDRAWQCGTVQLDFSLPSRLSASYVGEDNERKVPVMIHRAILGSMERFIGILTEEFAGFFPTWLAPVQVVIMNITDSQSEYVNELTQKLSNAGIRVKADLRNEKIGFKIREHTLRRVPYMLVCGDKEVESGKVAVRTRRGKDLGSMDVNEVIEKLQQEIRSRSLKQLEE
T2 sequence (P0A8M3 242-642 G463A): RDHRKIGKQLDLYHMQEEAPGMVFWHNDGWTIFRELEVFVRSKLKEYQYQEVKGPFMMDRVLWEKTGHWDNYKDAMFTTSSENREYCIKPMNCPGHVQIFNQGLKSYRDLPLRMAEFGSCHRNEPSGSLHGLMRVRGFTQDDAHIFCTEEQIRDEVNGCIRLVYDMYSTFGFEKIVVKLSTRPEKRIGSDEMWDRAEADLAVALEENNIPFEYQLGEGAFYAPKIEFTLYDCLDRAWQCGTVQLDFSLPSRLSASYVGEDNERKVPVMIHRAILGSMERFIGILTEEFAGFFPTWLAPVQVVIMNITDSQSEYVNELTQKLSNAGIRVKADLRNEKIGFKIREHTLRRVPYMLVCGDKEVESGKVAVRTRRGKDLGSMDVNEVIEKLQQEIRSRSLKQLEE
T1 sequence (P0A8M3 242-642 G463S): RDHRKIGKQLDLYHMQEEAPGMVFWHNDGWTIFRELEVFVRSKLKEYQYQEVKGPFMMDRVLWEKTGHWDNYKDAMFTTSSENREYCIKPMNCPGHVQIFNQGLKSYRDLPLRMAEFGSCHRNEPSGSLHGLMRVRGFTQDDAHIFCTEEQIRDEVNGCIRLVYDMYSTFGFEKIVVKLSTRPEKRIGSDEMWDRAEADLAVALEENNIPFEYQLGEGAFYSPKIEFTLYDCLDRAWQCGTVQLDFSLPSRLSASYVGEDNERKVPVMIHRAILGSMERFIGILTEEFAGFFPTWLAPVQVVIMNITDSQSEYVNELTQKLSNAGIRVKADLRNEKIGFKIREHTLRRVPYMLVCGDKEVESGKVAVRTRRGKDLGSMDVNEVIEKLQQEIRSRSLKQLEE

Structure (SMILES): C[C@@H]1C[C@H](C)C[C@H](C)[C@@H](O)CC(=O)O[C@H]([C@@H]2CCC[C@H]2C(=O)O)C/C=C/C=C(/C#N)[C@H](O)[C@@H](C)C1 [BN, borrelidin]
- ΔTm at 20 µM [1, 7]: 17.4 °C
- ΔTm at 20 µM ([1]; source data sheet Fig.7c, ThrRS_G463S, read-out: ΔTm, single replicates): 17.3 °C
- ΔTm at 20 µM [2, 7]: 19.1 °C
- ΔTm at 20 µM ([2]; source data sheet Fig.7c, ThrRS_G463A, read-out: ΔTm, single replicates): 19.1 °C
- ATP hydrolysis activity, inhibitory curve data point ([3]; Log10 Conc. 1.477, G463S): 98.112 and 97.245 and 94.519 and 96.966
- ATP hydrolysis activity, inhibitory curve data point ([3]; Log10 Conc. 2.000, G463S): 96.048 and 91.632 and 90.284 and 92.020
- ATP hydrolysis activity, inhibitory curve data point ([3]; Log10 Conc. 2.477, G463S): 91.563 and 88.959 and 88.970 and 89.661
- ATP hydrolysis activity, inhibitory curve data point ([3]; Log10 Conc. 3.000, G463S): 84.928 and 77.254 and 80.440 and 82.267
- ATP hydrolysis activity, inhibitory curve data point ([3]; Log10 Conc. 4.000, G463S): 53.455 and 58.497 and 57.343 and 60.957
- ATP hydrolysis activity, inhibitory curve data point ([4]; Log10 Conc. 1.477, WT): 101.322 and 78.096 and 79.643 and 84.982
- ATP hydrolysis activity, inhibitory curve data point ([4]; Log10 Conc. 2.000, WT): 101.576 and 82.194 and 100.286 and 100.117
- ATP hydrolysis activity, inhibitory curve data point ([4]; Log10 Conc. 2.477, WT): 72.956 and 78.844 and 97.078 and 88.856
- ATP hydrolysis activity, inhibitory curve data point ([4]; Log10 Conc. 3.000, WT): -7.239 and -12.609 and 12.089 and 13.133
- ATP hydrolysis activity, inhibitory curve data point ([4]; Log10 Conc. 3.477, WT): -29.715 and 1.779 and -2.712 and 18.045
- ATP hydrolysis activity, inhibitory curve data point ([4]; Log10 Conc. 4.000, WT): -14.823 and -17.346 and -12.025 and -9.555
- IC50 ([4]; in the presence of 2 μM ATP and 20 μM L-Thr): 0.559 µM
- decrease of inhibitory effect vs EcThrRS_WT ([5]; 2 μM ATP and 20 μM L-Thr): more than 20 fold
- ATP hydrolysis activity, inhibitory curve data point ([5]; BN, Log10 Conc. 3.477, G463S, replicates, sheet Fig.7d): 72.021 and 67.252 and 61.642 and 63.732
- decrease of inhibitory effect vs EcThrRS_WT ([6]; 2 μM ATP and 20 μM L-Thr): more than 20 fold
- ATP hydrolysis activity, inhibitory curve data point ([6]; Log10 Conc. 1.477, G463A): 95.000 and 86.999 and 114.196 and 92.149
- ATP hydrolysis activity, inhibitory curve data point ([6]; Log10 Conc. 2.000, G463A): 87.423 and 89.051 and 94.722 and 94.776
- ATP hydrolysis activity, inhibitory curve data point ([6]; Log10 Conc. 2.477, G463A): 87.400 and 82.253 and 93.320 and 93.112
- ATP hydrolysis activity, inhibitory curve data point ([6]; Log10 Conc. 3.000, G463A): 81.982 and 81.596 and 85.557 and 86.320
- ATP hydrolysis activity, inhibitory curve data point ([6]; Log10 Conc. 3.477, G463A): 63.653 and 64.234 and 69.634 and 68.650
- ATP hydrolysis activity, inhibitory curve data point ([6]; Log10 Conc. 4.000, G463A): 68.712 and 73.186 and 66.040 and 70.648
